Experimental data published in ChEMBL document CHEMBL4002623, “Synthesis and in vitro activity of dicationic indolyl diphenyl ethers as novel potent antibiotic agents against drug-resistant bacteria” (Bioorg Med Chem Lett, 2017).
Values after ≈ are worked out from the molar mass of the structure shown.

Experiments:
[1] = test system: Staphylococcus epidermidis; assay: Antibacterial activity against methicillin-sensitive Staphylococcus epidermidis ATCC 12228 by agar dilution method; type: functional
Enterococcus faecalis [2] = assay: Antibacterial activity against vancomycin-resistant Enterococcus faecalis ATCC 51299 by agar dilution method; type: functional
Staphylococcus aureus [3] = assay: Antibacterial activity against methicillin-sensitive Staphylococcus aureus 09-6 by agar dilution method; type: functional
Citrobacter freundii = assay: Antibacterial activity against Citrobacter freundii ATCC 43864 by agar dilution method; type: functional
Enterococcus faecium [4] = assay: Antibacterial activity against vancomycin-sensitive Enterococcus faecium 09-10 by agar dilution method; type: functional
Proteus mirabilis = assay: Antibacterial activity against Proteus mirabilis 09-1 by agar dilution method; type: functional
Klebsiella pneumoniae [5] = assay: Antibacterial activity against extended-spectrum beta-lactamase-negative Klebsiella pneumoniae 7 by agar dilution method; type: functional
[6] = test system: Staphylococcus epidermidis; assay: Antibacterial activity against methicillin-sensitive Staphylococcus epidermidis 09-9 by agar dilution method; type: functional
Klebsiella pneumoniae [7] = assay: Antibacterial activity against Klebsiella pneumoniae ATCC BAA-2146 expressing NDM-1 by agar dilution method; type: functional
Staphylococcus aureus [8] = assay: Antibacterial activity against methicillin-sensitive Staphylococcus aureus ATCC 29213 by agar dilution method; type: functional
Klebsiella pneumoniae [9] = assay: Antibacterial activity against extended-spectrum beta-lactamase-positive Klebsiella pneumoniae ATCC 700603 by agar dilution method; type: functional
Klebsiella aerogenes = assay: Antibacterial activity against Enterobacter aerogenes 45102 by agar dilution method; type: functional
Enterococcus faecium [10] = assay: Antibacterial activity against vancomycin-resistant Enterococcus faecium 05-8 by agar dilution method; type: functional
Serratia marcescens = assay: Antibacterial activity against Serratia marcescens 41002 by agar dilution method; type: functional
Enterococcus faecalis [11] = assay: Antibacterial activity against vancomycin-resistant Enterococcus faecalis 09-9 by agar dilution method; type: functional
Escherichia coli [12] = assay: Antibacterial activity against extended-spectrum beta-lactamase-positive Escherichia coli 09-1 by agar dilution method; type: functional
Proteus vulgaris = assay: Antibacterial activity against Proteus vulgaris ATCC 29905 by agar dilution method; type: functional
Escherichia coli [13] = assay: Antibacterial activity against extended-spectrum beta-lactamase-negative Escherichia coli 09-20 by agar dilution method; type: functional
[14] = test system: Staphylococcus epidermidis; assay: Antibacterial activity against methicillin-resistant Staphylococcus epidermidis 09-3 by agar dilution method; type: functional
[15] = Cytotoxicity against HEK293T cells after 48 hrs by MTS assay; type: cell-based, HEK-293T; settings: human
Klebsiella pneumoniae [16] = assay: Antibacterial activity against extended-spectrum beta-lactamase-positive Klebsiella pneumoniae 09-25 by agar dilution method; type: functional
Providencia rettgeri = assay: Antibacterial activity against Providencia rettgeri ATCC 31052 by agar dilution method; type: functional
Enterococcus faecalis [17] = assay: Antibacterial activity against vancomycin-sensitive Enterococcus faecalis ATCC 29212 by agar dilution method; type: functional
Pseudomonas aeruginosa [18] = assay: Antibacterial activity against Pseudomonas aeruginosa 09-14 by agar dilution method; type: functional
Staphylococcus aureus [19] = assay: Antibacterial activity against methicillin-resistant Staphylococcus aureus 09-13 by agar dilution method; type: functional
Pseudomonas aeruginosa [20] = assay: Antibacterial activity against Pseudomonas aeruginosa ATCC 27853 by agar dilution method; type: functional
Pseudomonas aeruginosa [21] = assay: Antibacterial activity against Pseudomonas aeruginosa PAO1 by agar dilution method; type: functional
Escherichia coli [22] = assay: Antibacterial activity against extended-spectrum beta-lactamase-negative Escherichia coli 1515 by agar dilution method; type: functional
Enterococcus faecalis [23] = assay: Antibacterial activity against vancomycin-sensitive Enterococcus faecalis 09-8 by agar dilution method; type: functional
Staphylococcus aureus [24] = assay: Antibacterial activity against methicillin-sensitive Staphylococcus aureus 15 by agar dilution method; type: functional
Salmonella typhi = assay: Antibacterial activity against Salmonella typhi H901 by agar dilution method; type: functional, Salmonella enterica subsp. enterica serovar Typhi; settings: Salmonella enterica
Enterococcus faecium [25] = assay: Antibacterial activity against vancomycin-resistant Enterococcus faecium ATCC 700221 by agar dilution method; type: functional
Escherichia coli [26] = assay: Antibacterial activity against extended-spectrum beta-lactamase-negative Escherichia coli ATCC 25922 by agar dilution method; type: functional
[27] = test system: Acinetobacter calcoaceticus; assay: Antibacterial activity against Acinetobacter calcoaceticus ATCC 19606 by agar dilution method; type: functional
Klebsiella pneumoniae [28] = assay: Antibacterial activity against extended-spectrum beta-lactamase-negative Klebsiella pneumoniae 09-8 by agar dilution method; type: functional
Enterobacter cloacae = assay: Antibacterial activity against Enterobacter cloacae 45301 by agar dilution method; type: functional
Morganella morganii = assay: Antibacterial activity against Morganella morganii ATCC 25830 by agar dilution method; type: functional
Staphylococcus aureus [29] = assay: Antibacterial activity against methicillin-resistant Staphylococcus aureus ATCC 33591 by agar dilution method; type: functional

SMILES	MIC [1]	MIC (Staphylococcus aureus [3])	MIC (Citrobacter freundii)	MIC (Enterococcus faecium [4])	MIC (Proteus mirabilis)	MIC [6]	MIC (Klebsiella pneumoniae [7])	MIC (Staphylococcus aureus [8])	MIC (Klebsiella aerogenes)	MIC (Serratia marcescens)	MIC (Escherichia coli [12])	MIC (Proteus vulgaris)	MIC (Klebsiella pneumoniae [16])	MIC (Providencia rettgeri)	MIC (Staphylococcus aureus [24])	MIC (Escherichia coli [26])	MIC [27]	MIC (Klebsiella pneumoniae [28])	MIC (Enterobacter cloacae)	MIC (Morganella morganii)	other results
N=C(c1ccc2cc(-c3ccc(Oc4ccc(-c5cc6ccc(C(=N)N7CCCC7)cc6[nH]5)cc4)cc3)[nH]c2c1)N1CCCC1	0.5 µg/mL (≈ 0.844 µM)	2 µg/mL (≈ 3.37 µM)	128 µg/mL (≈ 216 µM)	8 µg/mL (≈ 13.5 µM)	128 µg/mL (≈ 216 µM)	2 µg/mL (≈ 3.37 µM)	64 to 128 µg/mL (≈ 108 to 216 µM)	2 µg/mL (≈ 3.37 µM)	> 128 µg/mL	> 128 µg/mL	64 µg/mL (≈ 108 µM)	64 µg/mL (≈ 108 µM)	64 to 128 µg/mL (≈ 108 to 216 µM)	> 128 µg/mL	1 µg/mL (≈ 1.69 µM)	16 µg/mL (≈ 27 µM)	> 128 µg/mL	64 µg/mL (≈ 108 µM)	64 µg/mL (≈ 108 µM)	16 µg/mL (≈ 27 µM)	MIC (Enterococcus faecalis [2]): 8 µg/mL (≈ 13.5 µM); MIC (Klebsiella pneumoniae [5]): 64 to 128 µg/mL (≈ 108 to 216 µM); MIC (Klebsiella pneumoniae [9]): 128 µg/mL (≈ 216 µM); MIC (Enterococcus faecium [10]): 8 µg/mL (≈ 13.5 µM); MIC (Enterococcus faecalis [11]): 32 µg/mL (≈ 54 µM); MIC (Escherichia coli [13]): 64 µg/mL (≈ 108 µM); MIC [14]: 1 µg/mL (≈ 1.69 µM); CC50 at 48 h [15]: 3.2 µg/mL (≈ 5.4 µM); MIC (Enterococcus faecalis [17]): 8 µg/mL (≈ 13.5 µM); MIC (Pseudomonas aeruginosa [18]): > 128 µg/mL; MIC (Staphylococcus aureus [19]): 1 µg/mL (≈ 1.69 µM); MIC (Pseudomonas aeruginosa [20]): > 128 µg/mL; MIC (Pseudomonas aeruginosa [21]): > 128 µg/mL; MIC (Escherichia coli [22]): 64 µg/mL (≈ 108 µM); MIC (Enterococcus faecalis [23]): 32 µg/mL (≈ 54 µM); MIC (Salmonella typhi): 32 µg/mL (≈ 54 µM); MIC (Enterococcus faecium [25]): 2 µg/mL (≈ 3.37 µM); MIC (Staphylococcus aureus [29]): 1 µg/mL (≈ 1.69 µM)
C[C@H]1COc2c(N3CCN(C)CC3)c(F)cc3c(=O)c(C(=O)O)cn1c23.C[C@H]1COc2c(N3CCN(C)CC3)c(F)cc3c(=O)c(C(=O)O)cn1c23.O [LEVOFLOXACIN]	0.25 µg/mL	0.25 µg/mL	≤ 0.03 µg/mL	64 µg/mL	2 µg/mL	8 µg/mL	> 128 µg/mL	0.125 µg/mL	0.06 µg/mL	0.25 µg/mL	16 µg/mL	≤ 0.03 µg/mL	4 µg/mL	≤ 0.03 µg/mL	0.125 µg/mL	0.03 to 0.06 µg/mL	0.25 µg/mL	≤ 0.03 µg/mL	0.06 µg/mL	≤ 0.03 µg/mL	MIC (Enterococcus faecalis [2]): 0.5 µg/mL; MIC (Enterococcus faecium [10]): 64 µg/mL; MIC (Enterococcus faecalis [11]): 128 µg/mL; MIC [14]: 8 µg/mL; MIC (Enterococcus faecalis [17]): 0.5 µg/mL; MIC (Staphylococcus aureus [19]): 32 µg/mL; MIC (Enterococcus faecalis [23]): 1 µg/mL; MIC (Salmonella typhi): ≤ 0.03 µg/mL; MIC (Enterococcus faecium [25]): 64 µg/mL; MIC (Staphylococcus aureus [29]): 0.125 µg/mL
N=C(NC1CCCC1)c1ccc2cc(-c3ccc(Oc4ccc(-c5cc6ccc(C(=N)NC7CCCC7)cc6[nH]5)cc4)cc3)[nH]c2c1	8 µg/mL (≈ 12.9 µM)	128 µg/mL (≈ 206 µM)	> 128 µg/mL	≥ 128 µg/mL	> 128 µg/mL	8 µg/mL (≈ 12.9 µM)	> 128 µg/mL	128 µg/mL (≈ 206 µM)	> 128 µg/mL	> 128 µg/mL	> 128 µg/mL	> 128 µg/mL	> 128 µg/mL	> 128 µg/mL	128 µg/mL (≈ 206 µM)	> 128 µg/mL	> 128 µg/mL	> 128 µg/mL	> 128 µg/mL	> 128 µg/mL	MIC (Enterococcus faecalis [2]): 128 µg/mL (≈ 206 µM); MIC (Klebsiella pneumoniae [5]): > 128 µg/mL; MIC (Klebsiella pneumoniae [9]): > 128 µg/mL; MIC (Enterococcus faecium [10]): > 128 µg/mL; MIC (Enterococcus faecalis [11]): 128 µg/mL (≈ 206 µM); MIC (Escherichia coli [13]): > 128 µg/mL; MIC [14]: 16 µg/mL (≈ 25.8 µM); CC50 at 48 h [15]: 28.9 µg/mL (≈ 46.6 µM); MIC (Enterococcus faecalis [17]): 128 µg/mL (≈ 206 µM); MIC (Pseudomonas aeruginosa [18]): > 128 µg/mL; MIC (Staphylococcus aureus [19]): 64 µg/mL (≈ 103 µM); MIC (Pseudomonas aeruginosa [20]): > 128 µg/mL; MIC (Pseudomonas aeruginosa [21]): > 128 µg/mL; MIC (Escherichia coli [22]): > 128 µg/mL; MIC (Enterococcus faecalis [23]): 128 µg/mL (≈ 206 µM); MIC (Salmonella typhi): > 128 µg/mL; MIC (Enterococcus faecium [25]): ≥ 128 µg/mL; MIC (Staphylococcus aureus [29]): 64 µg/mL (≈ 103 µM)
c1cc(-c2cc3ccc(C4=NCCN4)cc3[nH]2)ccc1Oc1ccc(-c2cc3ccc(C4=NCCN4)cc3[nH]2)cc1	–	16 µg/mL (≈ 29.8 µM)	> 128 µg/mL	8 µg/mL (≈ 14.9 µM)	> 128 µg/mL	2 µg/mL (≈ 3.73 µM)	> 128 µg/mL	16 µg/mL (≈ 29.8 µM)	> 128 µg/mL	> 128 µg/mL	> 128 µg/mL	> 128 µg/mL	> 128 µg/mL	> 128 µg/mL	8 µg/mL (≈ 14.9 µM)	> 128 µg/mL	> 128 µg/mL	> 128 µg/mL	> 128 µg/mL	> 128 µg/mL	MIC (Klebsiella pneumoniae [5]): > 128 µg/mL; MIC (Klebsiella pneumoniae [9]): > 128 µg/mL; MIC (Escherichia coli [13]): > 128 µg/mL; CC50 at 48 h [15]: 1.7 µg/mL (≈ 3.17 µM); MIC (Pseudomonas aeruginosa [18]): > 128 µg/mL; MIC (Pseudomonas aeruginosa [20]): > 128 µg/mL; MIC (Pseudomonas aeruginosa [21]): > 128 µg/mL; MIC (Escherichia coli [22]): > 128 µg/mL
